Measurements reported in patent US20220162552A1, “Nonviral Modification of T Cell Gene Expression” (Precision NanoSystems Inc., priority 2019, published 2022).

Columns and labels:
Format in all cases: cell-based
[1] = tested on: primary human T cells (live CD4+/CD8+ T cells); assay: eGFP mRNA LNP transfection of activated T cells on day 7, 2 μg mRNA per 500,000 cells, flow cytometry after 48 h; details: for MFI results by ionizable lipid: MC3 versus BOCHD-C3-DMA; for activity of the lipid mix composition to transfect T cells by ionizable lipid (FIG. 10 upper): same ratios and materials, ionizable lipid varied
Description: All reagents from StemCell Technologies unless otherwise stated. T cells were isolated from whole human peripheral blood using a negative selection isolation procedure (EasySep™ Human T Cell Isolation Kit). T cell activation and expansion was carried out using Immunocult™ Human CD3/CD28/CD2 Activator in ImmunoCult™ Human T Cell Expansion Media supplemented with recombinant human IL-2 (Peprotech Inc., Rocky Hill USA). T cells typically enter a logarithmic phase of growth 48-96 hours after activation, which phase is characterized by a period of rapid proliferation and metabolic activity for 24-72 hours followed by a plateau in the growth curve as the cells start to return to a quiescent state. As depicted in FIG. 1, T cells may be exposed to lipid nucleic acid before or during the log phase of growth (day 3), or after the log phase of growth (day 7).
We tested the compositions of new Lipid Mixes against standard Lipid Mix A (all with BOCHD-C3-DMA as IL unless otherwise stated) using the triple T cell activation protocol (Pan T cells were activated with trio activator comprising anti-CD3/CD28/CD2 antibody) in LNP-mediated mRNA delivery and expression in vitro.
LNP formulated EGFP mRNA (Trilink Biotechnologies, San Diego, Calif.) was added to 500,000 T cells in 1 mL of complete T cell media, with 1 μg/mL of Recombinant Human ApoE4 (“ApoE”) (Peprotech Inc.).
The volume of LNAP required to achieve the desired dose of mRNA was calculated based on the concentration of encapsulated mRNA as determined by modified Ribogreen™ assay. T cells were counted through Trypan blue (Sigma) exclusion and diluted to 500,000 cells/mL. Briefly, in a 12 well plate, 1 mL was aliquoted into each well. ApoE was added to a final concentration of 1 ug/mL in each well. Based upon the calculation in step 1, the required amount of mRNA LNP was added, in this case 2 μg, and the plate incubated for 48 hours.
Different lipid mix compositions were tested for their ability to induce transfection as measured by geometric mean fluorescence intensity of GFP expressed in T cells (as measured by flow cytometry).
Three isolations of T cells were taken from a single donor and divided into three groups: Pan T cells (all T cells), CD4+ T cells alone, and CD8+ T cells alone. At 48H following lipid particle mRNA exposure, the treated T cells were harvested by transferring the cell suspensions to pre-labeled 1.5 mL tubes and centrifuged 300×g at 4 degrees Celsius for 10 minutes. Supernatant was removed and the pellet resuspended in PBS. An amount of 0.5 ul of BD Horizon™ Fixable Viability Stain 575V™ (BD Biosciences) was added, and the mixture incubated in the dark for 10 minutes at RT. The cells were centrifuged again as before, then washed twice with 1 mL of Stain buffer (BSA, BD Pharminigen), and the washed pellet placed in 100 μl BSA. The following antibodies were added to each tube of treated cells in 2 μl volumes: anit-CD25, anti-CD8, anti-CD4, (PerCP-Cy 5.5 Mouse Anti Human CD25, BV786 Mouse Anti-Human CD8 Clone RPA-T8, and APC-Cy™ 7 Mouse Anti-Human CD4 Clone SK3, all from BD Pharmingen). For compensation purposes, in the GFP only sample and viability control, no antibody was added, while in the single stain compensation tubes, only one antibody was added.
The tubes were incubated at 4 degrees C. for 30 min, whereupon […] of stain buffer (BSA) was added, and the cells were centrifuged again. Cells were washed once with 1 mL of stain buffer and spun down again as in step 1. Cell pellets were resuspended in 1 mL of stain buffer and added to pre-labeled flow tubes with cell strainer caps (Corning Falcon).
Histogram Analysis of T Cell Populations was generated as follows: Flow cytometry was performed on the live primary human T cells. […] All LNP compositions contained BOCHD-C3-DMA as ionizable lipid (IL). […]

[2] = tested on: isolated primary human T cells; assay: eGFP mRNA LNP transfection of T cells, 125,000 cells per well format (day 3/4/7), flow cytometry; details: CT10 composition, six donors, day 7
Description: Isolation of primary T cells from human whole blood and activation/expansion was performed as in general procedures above. Isolated T cells were exposed to the formulated mRNA three days after activation; in the T cell growth curve, this time point corresponds to just before or at the log phase of growth. A dose of 125 ng of CleanCap™ EGFP (Trilink Biotechnologies, San Diego, Calif.) mRNA encapsulated in LNP (see details below) was added to about 125,000 T cells in 0.25 mL of complete T cell media, with 1 ug/mL of Recombinant Human ApoE4 (“ApoE”) (Peprotech Inc., Montreal, Canada).
The volume of LNP required for T cell treatment was calculated based upon Ribogreen™ assay results. T cells were counted through Trypan blue (Sigma) exclusion and diluted to 500,000 cells/mL. […]
Lipid mix compositions were tested for their ability to induce transfection, using flow cytometry to measure the geometric mean fluorescence intensity of eGFP. Shown in FIG. 11 A(i) to D(ii) are the transfection efficiencies (i) and mean fluorescence intensities (ii) of mRNA LNPs encoding eGFP in isolated primary human T cells under various conditions. […]
GFP expression in isolated primary human T cells mediated by mRNA-LNPs containing BOCHD-C3-DMA with CT10 composition at N/P 8 is shown in FIG. 16. Transfection efficiency, viability and GFP MFI measured by flow cytometry 48 hours after LNP addition. […]

[3] = tested on: primary human T cells; assay: EPO mRNA LNP delivery to T cells, Human Epo ELISA; details: CT10 LNPs, 48 h
Description: Reagents were acquired from Quantikine, Minneapolis, Minn. The assay was performed as directed on the Quantikine® IVD® ELISA Human Erythropoietin Immunoassay protocol REF DEP00 Package Insert. Briefly; primary human T cells were isolated from fresh whole blood using a negative selection protocol and activated using a triple activator. At 7 days post-activation, the cells were treated with mRNA LNPs encoding EPO at 2 μg mRNA per 500,000 cells and N/P 10. After 48 hours of treatment with mRNA LNPs, the T cells were harvested and lysed for cytosolic EPO and media supernatant was sampled for secreted EPO. Quantikine® Human Serum Controls were used.
Frozen human T cells, previously isolated from fresh human whole blood using a negative selection protocol, were thawed and activated using a triple activator as previously described. At seven days post-activation, T cells were dosed with CT10 formulated mRNA LNPs encoding recombinant human erythropoietin (EPO) determined by ELISA (R&D Systems) at 2 μg mRNA per 500,000 cells and N/P 10. After 48 hours of treatment with mRNA LNPs the T cells were harvested and lysed for cytosolic EPO and media supernatant was sampled for secreted EPO.

CCCCCCCCC1CC1CCCCCCCCC(CCCCCCCCC1CC1CCCCCCCC)OC(=O)CCCN(C)C.Cl (stereo not drawn) [BOCHD-C3-DMA, 1,17-bis(2-octylcyclopropyl)heptadecan-9-yl 4-(dimethylamino) butanoate hydrochloride]
MFI results by ionizable lipid [1]: comparable | activity of the lipid mix composition to transfect T cells by ionizable lipid (FIG. 10 upper) [1]: without affecting the activity of the lipid mix composition to transfect T cells | donor to donor variability by ionizable lipid (FIG. 15) [2]: no substantial difference | level of secreted EPO by ionizable lipid [3]: higher level of secreted EPO than MC3 LNPs

CCCCCCCCCCCCCCCCCC(=O)OC[C@H](COP(=O)([O-])OCC[N+](C)(C)C)OC(=O)CCCCCCCCCCCCCCCCC [DSPC, distearoylphosphatidylcholine]
T cell transfection by structural lipid (FIG. 8) ([1]; Lipid Mix CT22 ratios, structural lipid DOPE or DSPC, N/P 10): better than DOPE

CCCCC/C=C\C/C=C\CCCCCCCCC1(CCCCCCCC/C=C\C/C=C\CCCCC)OCC(CCN(C)C)O1 (stereo not drawn) [KC2, 2,2-dilinoleyl-4-(2-dimethylaminoethyl)-[1,3]-dioxolane, reference compound]
activity of the lipid mix composition to transfect T cells by ionizable lipid (FIG. 10 upper) [1]: without affecting the activity of the lipid mix composition to transfect T cells

CCCCCC=CCC=CCCCCCCCCC(CCCCCCCCC=CCC=CCCCCC)OC(=O)CCCN(C)C (stereo not drawn) [MC3, heptatriaconta-6,9,28,31-tetraen-19-yl 4-(dimethylamino)butanoate, reference compound]
MFI results by ionizable lipid [1]: comparable | activity of the lipid mix composition to transfect T cells by ionizable lipid (FIG. 10 upper) [1]: without affecting the activity of the lipid mix composition to transfect T cells | donor to donor variability by ionizable lipid (FIG. 15) [2]: no substantial difference
